Source: patent publication US20110306573A1, “NUCLEOSIDE DERIVATIVES AS INHIBITORS OF VIRAL POLYMERASES” (priority 2008, published 2011)
Where a name gives a salt, the structure may show the parent alone.

tested on: subgenomic HCV Replicon in HuH-7 hepatoma cells; assay: Assay for inhibition of HCV RNA replication (subgenomic replicon, in situ ribonuclease protection SPA); type: cell-based, Hepatitis C Virus; conditions: Hepatitis C virus, Huh-7
Description: The compounds of the present invention were also evaluated for their ability to affect the replication of Hepatitis C Virus RNA in cultured hepatoma (HuH-7) cells containing a subgenomic HCV Replicon. The details of the assay are described below. This Replicon assay is a modification of that described in V. Lohmann, F. Korner, J-O. Koch, U. Herian, L. Theilmann, and R. Bartenschlager, “Replication of a Sub-genomic Hepatitis C Virus RNAs in a Hepatoma Cell Line,” Science 285:110 (1999).
The assay was an in situ Ribonuclease protection, Scintillation Proximity based-plate assay (SPA). 10,000-40,000 cells were plated in 100-200 μL of media containing 0.8 mg/mL G418 in 96-well cytostar plates (Amersham). Compounds were added to cells at various concentrations up to 100 μM in 1% DMSO at time 0 to 18 h and then cultured for 24-96 h. Cells were fixed (20 min, 10% formalin), permeabilized (20 min, 0.25% Triton X-100/PBS) and hybridized (overnight, 50° C.) with a single-stranded ^33P RNA probe complementary to the (+) strand NS5B (or other genes) contained in the RNA viral genome. Cells were washed, treated with RNAse, washed, heated to 65° C. and counted in a Top-Count Inhibition of replication was read as a decrease in counts per minute (cpm).
Human HuH-7 hepatoma cells, which were selected to contain a subgenomic replicon, carry a cytoplasmic RNA consisting of an HCV 5′ non-translated region (NTR), a neomycin selectable marker, an EMCV IRES (internal ribosome entry site), and HCV non-structural proteins NS3 through NS5B, followed by the 3′ NTR.

Compound | EC50 [µM]
COc1nc(-c2cn([C@@H]3O[C@H](CO)[C@@H](O)[C@@]3(C)O)c3ncnc(N)c23)cs1 [Compound 4, 5-(2-methoxy-1,3-thiazol-4-yl)-7-(2-C-methyl-β-D-ribofuranosyl)-7H-pyrrolo[2,3-d]pyrimidin-4-amine trifluoroacetate] | > 50
CCOC(=O)[C@H](C)NP(=O)(OC[C@H]1O[C@@H](n2cc(-c3ccn[nH]3)c3c(N)ncnc32)[C@](C)(O)[C@@H]1O)Oc1ccccc1 (stereo in doubt) [Compound 29, Ethyl 2-{[(R)-({(2R,3S,4R,5R)-5-[4-amino-5-(1H-pyrazol-5-yl)-7H-pyrrolo[2,3-d]pyrimidin-7-yl]-3,4-dihydroxy-4-methyltetrahydrofuran-2-yl}methoxy)(phenoxy)phosphoryl]amino}propanoate] | < 20
CCOC(=O)[C@H](C)NP(=O)(OC[C@H]1O[C@@H](n2cc(-c3ncco3)c3c(N)ncnc32)[C@](C)(O)[C@@H]1O)Oc1ccccc1 (stereo in doubt) [Compound 30, Ethyl 2-{[(R)-({(2R,3S,4R,5R)-5-[4-amino-5-(1,3-oxazol-2-yl)-7H-pyrrolo[2,3-d]pyrimidin-7-yl]-3,4-dihydroxy-4-methyltetrahydrofuran-2-yl}methoxy)(phenoxy)phosphoryl]amino}propanoate] | < 20
Cn1cc(-c2cn([C@@H]3O[C@H](CO)[C@@H](O)[C@@]3(C)O)c3ncnc(N)c23)nn1 [Compound 8, 7-(2-C-methyl-β-D-ribofuranosyl)-5-(1-methyl-1H-1,2,3-triazol-4-yl)-7H-pyrrolo[2,3-d]pyrimidin-4-amine trifluoroacetate] | 20 to 50

same assay, conditions: Hepatitis C virus; HuH-7 cells containing a subgenomic HCV Replicon, compounds up to 100 μM in 1% DMSO, cultured 24-96 h; read-out: EC50

Compound | EC50 [µM]
C[C@@]1(O)[C@H](O)[C@@H](CO)O[C@H]1n1cc(-c2ncon2)c2c(N)ncnc21 [Compound 7, 7-(2-C-methyl-β-D-ribofuranosyl)-5-(1,2,4-oxadiazol-3-yl)-7H-pyrrolo[2,3-d]pyrimidin-4-amine] | < 20
C[C@@]1(O)[C@H](O)[C@@H](CO)O[C@H]1n1nc(-c2cc[nH]n2)c2c(N)ncnc21 [Compound 25, 1-(2-C-methyl-β-D-ribofuranosyl)-3-(1H-pyrazol-3-yl)-1H-pyrazolo[3,4-d]pyrimidin-4-amine] | < 20
C[C@@]1(F)[C@H](O)[C@@H](CO)O[C@H]1n1cc(-c2ncon2)c2c(N)ncnc21 [Compound 23, 7-(2-deoxy-2-fluoro-2-methyl-β-D-ribofuranosyl)-5-(1,2,4-oxadiazol-3-yl)-7H-pyrrolo[2,3-d]pyrimidin-4-amine] | 20 to 50
C[C@@]1(F)[C@H](O)[C@@H](CO)O[C@H]1n1cc(-c2ncco2)c2c(N)ncnc21 [Compound 22, 7-(2-deoxy-2-fluoro-2-methyl-β-D-ribofuranosyl)-5-(1,3-oxazol-2-yl)-7H-pyrrolo[2,3-d]pyrimidin-4-amine] | 20 to 50
COc1ccc(-c2cn([C@@H]3O[C@H](CO)[C@@H](O)[C@@]3(C)O)c3ncnc(N)c23)cn1 [Compound 24, 7-(2-C-methyl-β-D-ribofuranosyl)-5-(6-methoxypyridin-3-yl)-7H-pyrrolo[2,3-d]pyrimidin-4-amine] | > 50
C[C@@]1(O)[C@H](O)[C@@H](CO)O[C@H]1n1cc(-c2cccs2)c2c(N)ncnc21 [Compound 9, 7-(2-C-methyl-β-D-ribofuranosyl)-5-(2-thienyl)-7H-pyrrolo[2,3-d]pyrimidin-4-amine] | < 20
C[C@@]1(F)[C@H](O)[C@@H](CO)O[C@H]1n1cc(-c2ccn[nH]2)c2c(N)ncnc21 [Compound 21, 7-(2-deoxy-2-fluoro-2-methyl-β-D-ribofuranosyl)-5-(1H-pyrazol-5-yl)-7H-pyrrolo[2,3-d]pyrimidin-4-amine] | 20 to 50
C[C@@]1(O)[C@H](O)[C@@H](CO)O[C@H]1n1cc(-c2nnco2)c2c(N)ncnc21 [Compound 27, 7-(2-C-methyl-β-D-ribofuranosyl)-5-(1,3,4-oxadiazol-2-yl)-7H-pyrrolo[2,3-d]pyrimidin-4-amine] | < 20
C[C@@]1(O)[C@H](O)[C@@H](CO)O[C@H]1n1cc(-c2ncccn2)c2c(N)ncnc21 [Compound 3, 7-(2-C-methyl-β-D-ribofuranosyl)-5-pyrimidin-2-yl-7H-pyrrolo[2,3-d]pyrimidin-4-amine] | > 50
C[C@@]1(O)[C@H](O)[C@@H](CO)O[C@H]1n1cc(-c2ccn[nH]2)c2c(N)ncnc21 [Compound 5, 7-(2-C-methyl-β-D-ribofuranosyl)-5-(1H-pyrazol-5-yl)-7H-pyrrolo[2,3-d]pyrimidin-4-amine] | 20 to 50
C[C@@]1(O)[C@H](O)[C@@H](CO)O[C@H]1n1cc(-c2cn[nH]c2)c2c(N)ncnc21 [Compound 6, 7-(2-C-methyl-β-D-ribofuranosyl)-5-(1H-pyrazol-4-yl)-7H-pyrrolo[2,3-d]pyrimidin-4-amine] | 20 to 50
C[C@@]1(O)[C@H](O)[C@@H](CO)O[C@H]1n1cc(-c2ncco2)c2c(N)ncnc21 [Compound 2, 7-(2-C-methyl-β-D-ribofuranosyl)-5-(1,3-oxazol-2-yl)-7H-pyrrolo[2,3-d]pyrimidin-4-amine] | < 20

same assay, conditions: HuH-7 cells containing a subgenomic HCV Replicon, compounds up to 100 μM in 1% DMSO, cultured 24-96 h; read-out: EC50

Compound | EC50 [µM]
7-(2-C-methyl-β-D-ribofuranosyl)-5-(1-methyl-1H-tetrazol-5-yl)-7H-pyrrolo[2,3-d]pyrimidin-4-amine (A) and 7-(2-C-methyl-β-D-ribofuranosyl)-5-(2-methyl-2H-tetrazol-5-yl)-7H-pyrrolo[2,3-d]pyrimidin-4-amine (B) [Compound 1] | < 20

target: T1, HCV NS5B polymerase (Hepatitis C virus genotype 1b, UniProt P26663); assay: Assay for inhibition of HCV NS5B polymerase (RdRp, 3H-UTP incorporation on heteromeric RNA template); type: biochemical; conditions: heterogeneous template dCoh, 2 nM DC55-lb.BK or 10 nM DC55-2b.2, NTPs 1 uM, room temperature 2 hours
T1 construct: RNA-dependent RNA polymerase (NS5B) of the hepatitis C virus (HCV)
Description: The effectiveness of the compounds of the present invention as inhibitors of HCV NS5B RNA-dependent RNA polymerase (RdRp) was measured in the following assay.
This assay was used to measure the ability of the nucleoside derivatives of the present invention to inhibit the enzymatic activity of the RNA-dependent RNA polymerase (NS5B) of the hepatitis C virus (HCV) on a heteromeric RNA template.
Assay Buffer Conditions: (52.5 μL-total/reaction)
20 nM heterogeneous template dCoh
2.5 μl/reaction inhibitor compound in H2O
The compounds were tested at various concentrations up to 100 μM final concentration. Nucleoside derivatives were pipetted into wells of a 96-well plate. The enzyme diluted in the reaction buffer was pipetted into the wells and incubated at room temperature for 10 minutes; then the template dCoh was added and incubated for 10 minutes at room temperature. The reaction was initiated by addition of a mixture of nucleotide triphosphates (NTP's), including the radiolabeled UTP, and allowed to proceed at room temperature for 2 hours. Blank samples were done omitting the dCoh template. The reaction was quenched by addition of 50 ul TCA 20% (trichloroacetic acid)/NaPPi 20 mM and the plates were put in ice for 5 minutes. Then, the mixtures were filtered onto Unifilter GF/B 96-well plates (PerkinElmer), washed with TCA 2.5%. 50 ul/well of scintillator solution (Microscint 20, PerkinElmer) were added and the plates were counted in a scintillator counter.
The percentage of inhibition was calculated according to the following equation:
% Inhibition=[1−(cpm in test reaction−cpm in blank)/(cpm in control reaction−cpm in blank)]×100.

T1 sequence (P26663 2420-2955): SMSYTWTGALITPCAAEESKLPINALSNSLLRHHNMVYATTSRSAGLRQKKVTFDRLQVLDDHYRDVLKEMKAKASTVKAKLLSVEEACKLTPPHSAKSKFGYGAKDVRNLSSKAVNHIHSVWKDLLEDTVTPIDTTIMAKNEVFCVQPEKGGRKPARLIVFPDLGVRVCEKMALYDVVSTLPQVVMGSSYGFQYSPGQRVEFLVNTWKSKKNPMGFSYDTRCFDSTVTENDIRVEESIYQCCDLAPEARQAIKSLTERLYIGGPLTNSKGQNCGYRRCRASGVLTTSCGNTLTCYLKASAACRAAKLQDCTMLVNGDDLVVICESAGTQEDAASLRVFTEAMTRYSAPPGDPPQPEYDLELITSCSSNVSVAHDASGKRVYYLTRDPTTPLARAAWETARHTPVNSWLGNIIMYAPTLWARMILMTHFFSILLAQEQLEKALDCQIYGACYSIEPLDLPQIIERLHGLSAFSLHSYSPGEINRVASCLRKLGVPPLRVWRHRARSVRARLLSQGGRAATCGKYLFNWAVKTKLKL

IC50 [µM] | Compound
< 1 | C[C@@]1(F)[C@H](O)[C@@H](COP(=O)(O)OP(=O)(O)OP(=O)(O)O)O[C@H]1n1cc(-c2ncco2)c2c(N)ncnc21 [Compound 19, 7-(2-deoxy-2-fluoro-2-methyl-5-triphospho-β-D-ribofuranosyl)-5-(1,3-oxazol-2-yl)-7H-pyrrolo[2,3-d]pyrimidin-4-amine]
< 50 | C[C@@]1(O)[C@H](O)[C@@H](COP(=O)(O)OP(=O)(O)OP(=O)(O)O)O[C@H]1n1nc(-c2cc[nH]n2)c2c(N)ncnc21 [Compound 26, 1-[5-O-(hydroxy{[hydroxy(phosphonooxy)phosphoryl]oxy}phosphoryl)-2-C-methyl-b-D-ribofuranosyl]-3-(1H-pyrazol-3-yl)-1H-pyrazolo[3,4-d]pyrimidin-4-amine]
< 50 | COc1nc(-c2cn([C@@H]3O[C@H](COP(=O)(O)OP(=O)(O)OP(=O)(O)O)[C@@H](O)[C@@]3(C)O)c3ncnc(N)c23)cs1 [Compound 13, 5-(2-methoxy-1,3-thiazol-4-yl)-7-(2-C-methyl-5-triphospho-β-D-ribofuranosyl)-7H-pyrrolo[2,3-d]pyrimidin-4-amine]
< 1 | C[C@@]1(O)[C@H](O)[C@@H](COP(=O)(O)OP(=O)(O)OP(=O)(O)O)O[C@H]1n1cc(-c2ncco2)c2c(N)ncnc21 [Compound 11, 7-(2-C-methyl-5-triphospho-β-D-ribofuranosyl)-5-(1,3-oxazol-2-yl)-7H-pyrrolo[2,3-d]pyrimidin-4-amine]
< 1 | C[C@@]1(O)[C@H](O)[C@@H](COP(=O)(O)OP(=O)(O)OP(=O)(O)O)O[C@H]1n1cc(-c2ncon2)c2c(N)ncnc21 [Compound 16, 7-(2-C-methyl-5-triphospho-β-D-ribofuranosyl)-5-(1,2,4-oxadiazol-3-yl)-7H-pyrrolo[2,3-d]pyrimidin-4-amine]
